Results as given in US20080241258A1, “TREATMENT OF DISEASES WITH NANOPARTICLES HAVING A SIZE-DEPENDENT CYTOTOXICITY” (priority 2007, published 2008).

How the values were obtained:
[1] = Stability (aggregation) of Au compounds in serum containing cell culture media, scored from microscopic pictures; type: physicochemical; set-up: key: Material aggregation was scored positive (+); negative (−); conditions: for Aggregation at 12 hours: sign after slash; for Aggregation at 5 minutes: sign in front of slash
Description: Next applicant tested the stability of the materials in the serum containing cell culture media formulated for proper growth of the cell lines used in this study. Applicant reasoned that the medium composition might affect particle aggregation and that aggregation of materials would greatly influence the endocytic pathway and ultimately the cellular trajectories of materials precluding or favoring intracellular targets. Macroscopic and microscopic aspects of medium-material combinations in the absence of any cells were studied by applicant.
Materials were grouped according to their stability in specific media and over time.
Material stability was assayed in DMEM high glucose (H). DMEM low glucose (L) and RPMI 1640 including 10% fetal calf serum. Material aggregation was scored positive (+) or negative (−) from microscopic pictures taken after 5 minutes (sign in from of slash) and 12 hours incubation (sign after slash).

[2] = test system: HeLa cervix carcinoma epithelial cells; assay: MTT cytotoxicity assay, logarithmic growth phase; type: cell-based; conditions: FIG. 3A, at ˜10 μM ligand
Description: Applicant quantified the toxicity of Au compounds in four cell lines determining the inhibitory concentrations that effected 50% growth inhibition (IC50) in MTT assays. Applicant reasoned that actively growing and dividing cells during logarithmic growth should be more vulnerable to toxic insults than cells in near or at the stationary phase of cell culture. Thus, applicant determined growth curves for all cell lines to estimate the logarithmic and stationary growth phases in relation to the number of cells seeded into each well of a 96-well cell culture plate. […] This graph serves as a reference to estimate whether cells were in the logarithmic or in the stationary phase of cell culture at the start of any given experiment. […] The bottom panel depicts the protocol of cytotoxicity testing starting during the logarithmic (left bottom panel) or the stationary growth phase (right bottom panel).
Having established growth characteristics for the reporter cell lines applicant treated the cells with Au compounds for up to 48 hours to observe the full effect of toxicity. […]
FIG. 3 A): HeLa cells were plated at 2000 cells/well and grown for 3 days into the logarithmic growth phase. […] Shown are the logarithmic curve fits of tabulated MTT readings. […] All concentrations relate to the amount of gold [Au] detected by AAS in the authentic samples after performing the cytotoxicity test. […]

[3] = test system: HeLa, SK-MeI-28, L929 and J774A1 cells; assay: MTT cytotoxicity assay in four cell lines
Description: Applicant tested the cytotoxicity of these particles in four cell lines representing major functional cell types with barrier and phagocyte function.
Applicant added Au compounds to HeLa cervix carcinoma epithelial cells (HeLa), SK-MeI-28 melanoma cells (SK-MeI-28), L929 mouse fibroblasts (L929) and J774A.1 mouse monocytic/macrophage cells (J774A1) and first studied their response by light and electron microscopy.
Applicant quantified the toxicity of Au compounds in four cell lines determining the inhibitory concentrations that effected 50% growth inhibition (IC50) in MTT assays. […] Thus, applicant determined growth curves for all cell lines to estimate the logarithmic and stationary growth phases in relation to the number of cells seeded into each well of a 96-well cell culture plate.
Having established growth characteristics for the reporter cell lines applicant treated the cells with Au compounds for up to 48 hours to observe the full effect of toxicity. […] Applicant performed toxicity tests both during the logarithmic and the stationary phase of cell growth following the time course depicted in FIG. 2, lower panels.
FIG. 3 A): HeLa cells were plated at 2000 cells/well and grown for 3 days into the logarithmic growth phase. […] All concentrations relate to the amount of gold [Au] detected by AAS in the authentic samples after performing the cytotoxicity test. […]

[4] = DMEM high glucose (H) including 10% fetal calf serum
[5] = DMEM low glucose (L) including 10% fetal calf serum
[6] = RPMI 1640 including 10% fetal calf serum

| Compound | Aggregation at 12 hours [1, 4] | Aggregation at 5 minutes [1, 4] | Aggregation at 12 hours [1, 5] | Aggregation at 5 minutes [1, 5] | Aggregation at 12 hours [1, 6] | Aggregation at 5 minutes [1, 6] | ligand toxicity [2] | non-toxic at up to x fold higher concentration (than 1.4 nm nanoclusters) ([3]; four cell lines) | IC50 ([3]; read-out: cytotoxicity: non-toxic at concentrations up to, all cells tested) [mM] |
| --- | --- | --- | --- | --- | --- | --- | --- | --- | --- |
| [Au+3].[Cl-].[Cl-].[Cl-].[Cl-].[H+] [HAuCl4] | −/− | −/− | −/− | −/− | −/− | −/− |  |  |  |
| O=S(=O)([O-])c1cccc(P(c2cccc(S(=O)(=O)[O-])c2)c2cccc(S(=O)(=O)[O-])c2)c1.[Na+].[Na+].[Na+] [TPPTS, triphenylphosphine trisulfonate] | −/− | −/− | −/− | −/− | −/− | −/− | non-toxic |  |  |
| [Cl][Au-]([Cl])([Cl])[Cl].[Na+] [NaAuCl4] | −/− | −/− | −/− | −/− | −/− | −/− |  |  |  |
| O=S(=O)([O-])c1cccc(P(c2ccccc2)c2ccccc2)c1.[Na+] [TPPMS, triphenylphosphine monosulfonate] | −/− | −/− | −/− | −/− | −/− | −/− | non-toxic |  |  |
| gold thiomalate [Tauredon] | +/+ | +/+ | +/+ | +/+ | + | − |  | up to 1000 fold | > 10 |
